Where a name gives a salt, the structure may show the parent alone.
What follows are compounds tested against Thromboxane-A synthase (Oryctolagus cuniculus) (assay: Inhibitory activity against rabbit thromboxane synthetase).

| SMILES | IC50 [nM] |
| --- | --- |
| O=C(O)C1(CCCCCCn2ccnc2)CCCCC1 [1-(6-Imidazol-1-yl-hexyl)-cyclohexanecarboxylic acid; hydrochloride] | 46 |
| CC(CCCCCCn1ccnc1)C(=O)O (stereo not drawn) [8-Imidazol-1-yl-2-methyl-octanoic acid; hydrochloride] | 30 |
| O=C(O)C(CCCCCCn1ccnc1)c1ccccc1 (stereo not drawn) [8-Imidazol-1-yl-2-phenyl-octanoic acid; hydrochloride] | 38 |
| CC(C)(CCCCn1ccnc1)CCC(=O)O [8-Imidazol-1-yl-4,4-dimethyl-octanoic acid; hydrochloride] | 71 |
| CC(C)(CCCCCCC(=O)O)n1ccnc1 [8-Imidazol-1-yl-8-methyl-nonanoic acid; hydrochloride] | 90 |
| O=C(O)/C=C/CCCCCn1ccnc1 [8-Imidazol-1-yl-oct-2-enoic acid; hydrochloride] | 70 |
| O=C(O)/C=C\CCCCCn1ccnc1 [8-Imidazol-1-yl-oct-2-enoic acid] | 16 |
| O=C(O)CCCC/C=C\Cn1ccnc1 [8-Imidazol-1-yl-oct-6-enoic acid; hydrochloride] | 56 |

Reference: BindingDB's records for doi:10.1021/jm00142a005 (1982)
